Holding throughout (experiment): NCI anticancer screen, dose series, 48 h
The test system of assay [1] is LOX IMVI melanoma.
For assay [2], the system named is PC-3 prostate.
Assay [3] concerns HCC-2998 colon.
In assay [4] the test system is TK-10 renal.
Assay [5] concerns HCT-15 colon.
For assay [6], the system named is SK-MEL-28 melanoma.
Assay [7] relates to MDA-MB-435.
In assay [8] the test system is UACC-62 melanoma.
Assay [9] concerns KM12 colon.
The subject of assay [10] is 786-0 renal.

The structures appear in SMILES notation. Where “and” joins values, the source holds several entries; their conditions need not be identical. Equal entries are not always repeated.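 Following 48 hours of exposure in 96-well plates, responses at five concentrations were used to interpolate endpoints linearly. Here, GI50 denotes the concentration required for 50% inhibition of growth. TGI: total growth inhibition.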 Some results are limits rather than exact numbers.

`Cc1c[n+](Cc2ccc3ccccc3c2)cn1Cc1ccc2ccccc2c1`: the GI50 in [1] was 1.34 µM; in assay [2] it was 1.27 µM; in assay [3], 1.34 µM; in assay [4], 1.82 µM; in assay [5], 10.3 µM; in assay [6], 1.8 µM. The GI50 is 1.28 µM in assay [7], 1.41 µM in [8], 1.65 µM in [9] and 1.71 µM in assay [10]. Further, the TGI amounted to 2.7 µM in [1]; 2.84 µM in assay [2]; 2.83 µM in assay [3]; 3.73 µM in [4]; 24.2 µM in assay [5]; 3.7 µM in assay [6]. The TGI came to 3.03 µM in [7], 3.12 µM in [8], 3.1 µM in assay [9] and 3.63 µM in assay [10].
Turning to `O=C(O)c1ccccc1-c1ccccc1C(=O)Nc1ccc2c(c1)Cc1cc(F)ccc1-2`, the TGI was 77.7 µM in assay [1]; 68.2 µM in assay [2]; 33.8 µM in assay [3]; 90.9 µM in assay [4]; 38 µM in [5]; more than 100 µM in assay [6]. For the same compound, the TGI in assay [7] is more than 100 µM; in [8] it was 36.8 µM; in assay [9], more than 100 µM; in assay [10], more than 100 µM.
For `CCCCCc1c(C)[nH]c(/C=C2\N=C(c3ccc[nH]3)C=C2CC)c1C`, the GI50 in [1] was less than 0.01 µM; in assay [2] it was less than 0.011 µM; in assay [3], less than 0.01 µM; in assay [4], less than 0.0155 µM; in assay [5] it was less than 0.01 µM; in [6] it was 0.0296 µM. The GI50 in assay [7] is less than 0.01 µM; in assay [8] it was 0.0158 µM; in assay [9] it was less than 0.01 µM; in assay [10] it was less than 0.01 µM. Also, the TGI in assay [2] amounted to 1.23 µM; in [3] it was 0.174 µM; in [4], 0.166 µM; in [5] it was 0.125 µM; in assay [6], 0.144 µM; in [7] it was 0.108 µM. Further, the figures for the TGI in assay [8], in [9] and in assay [10] were 0.043 µM, 0.191 µM and 0.0352 µM, respectively.
As for `Fc1ccc(Nc2cc(-n3nnc4ccccc43)nc3ccccc23)cc1`, the GI50 was 37.7 µM in assay [1]; 20.3 µM in [2]; more than 100 µM in assay [3]; 23.5 µM in assay [4]; more than 100 µM in assay [5]; more than 56.2 µM in [6]. The GI50 in assay [7] is more than 50.7 µM; in assay [8], 36.4 µM; in assay [9] it was more than 100 µM; in [10], 13.1 µM. Besides, the TGI in [1] is more than 100 µM; in assay [2] it was more than 100 µM; in assay [3], more than 100 µM; in [4], more than 77.8 µM; in [5] it was more than 100 µM; in assay [6], more than 100 µM. The TGI in assay [7] was more than 100 µM; in assay [8], more than 69.2 µM; in assay [9], more than 100 µM; in assay [10], more than 49.9 µM.
In the case of `O=C1/C(=C\c2cccn2Cc2ccccc2)c2ccccc2N1c1c(Cl)cccc1Cl`, the GI50 was more than 100 µM in assay [1]; 5.93 µM in assay [2]; 1.83 µM in [3]; 0.978 µM in assay [4]; 0.885 µM in assay [5]; more than 100 µM in [6]. The GI50 was more than 100 µM in [7], 3.28 µM in assay [8], 0.866 µM in assay [9] and more than 100 µM in [10]. For the same compound, the TGI in assay [1], in assay [2], in assay [3], in assay [4], in assay [5] and in assay [6] was more than 100 µM in each case. For the same compound, the TGI in assay [7] was more than 100 µM; in [8], more than 100 µM; in assay [9], more than 53.4 µM; in assay [10], more than 100 µM.
`Cc1[nH]n(-c2cccc(Cl)c2)c(=O)c1/C=C1\C=Nc2ccc(Br)cc21`: the GI50 is 5.48 µM in assay [1]; 3.64 µM in assay [2]; 14.3 µM in assay [3]; 2.6 µM in assay [4]; 5.25 µM in assay [5]; 19.6 µM in assay [6]. Moreover, the GI50 in assay [7] was 6.78 µM; in [8], 4.34 µM; in assay [9], 6.65 µM; in [10], 2.14 µM. The TGI was 38 µM in assay [1]; 22.3 µM in [2]; more than 100 µM in assay [3]; 5.18 µM in assay [4]; more than 100 µM in [5]; more than 100 µM in [6]. Also, the TGI in assay [7] is more than 100 µM; in [8], 18.2 µM; in assay [9], more than 100 µM; in assay [10] it was 4.68 µM.
`CSC1(CC(=O)N(C)C)C(=O)Nc2ccccc21` (centres undefined): the TGI in [1], in assay [2], in assay [3], in assay [4], in assay [5] and in assay [6] was more than 100 µM in each case. In addition, the TGI in assay [7], in assay [8], in assay [9] and in assay [10] was more than 100 µM throughout.
For the compound `O=C(Nc1cccc(Cl)c1)c1cc2ccccc2cc1O`, the GI50 in assay [1] is 3.73 µM and 1.75 µM; in assay [2], 1.73 µM and 2 µM; in assay [3], 3.9 µM and 3.39 µM; in [4], 5.58 µM and 5.82 µM; in [5], 2.38 µM and 2.36 µM; in assay [6] it was 2.69 µM and 0.554 µM. Further, the GI50 was 2.38 µM and 2.02 µM in assay [7]; 1.55 µM and 0.657 µM in assay [8]; 3.17 µM and 2.71 µM in [9]; 3.6 µM and 3.12 µM in assay [10]. The TGI in assay [1], in [2], in assay [3], in assay [4], in assay [5] and in [6] was more than 100 µM in each case. Besides, the TGI in assay [7], in assay [8], in [9] and in assay [10] was more than 100 µM each time.

The record behind these values is PubChem BioAssay (NCI).
